The target in the experiment is T1, 3-hydroxy-3-methylglutaryl-coenzyme A reductase (Rattus norvegicus) (UniProt P51639).
T1 sequence (whole entry): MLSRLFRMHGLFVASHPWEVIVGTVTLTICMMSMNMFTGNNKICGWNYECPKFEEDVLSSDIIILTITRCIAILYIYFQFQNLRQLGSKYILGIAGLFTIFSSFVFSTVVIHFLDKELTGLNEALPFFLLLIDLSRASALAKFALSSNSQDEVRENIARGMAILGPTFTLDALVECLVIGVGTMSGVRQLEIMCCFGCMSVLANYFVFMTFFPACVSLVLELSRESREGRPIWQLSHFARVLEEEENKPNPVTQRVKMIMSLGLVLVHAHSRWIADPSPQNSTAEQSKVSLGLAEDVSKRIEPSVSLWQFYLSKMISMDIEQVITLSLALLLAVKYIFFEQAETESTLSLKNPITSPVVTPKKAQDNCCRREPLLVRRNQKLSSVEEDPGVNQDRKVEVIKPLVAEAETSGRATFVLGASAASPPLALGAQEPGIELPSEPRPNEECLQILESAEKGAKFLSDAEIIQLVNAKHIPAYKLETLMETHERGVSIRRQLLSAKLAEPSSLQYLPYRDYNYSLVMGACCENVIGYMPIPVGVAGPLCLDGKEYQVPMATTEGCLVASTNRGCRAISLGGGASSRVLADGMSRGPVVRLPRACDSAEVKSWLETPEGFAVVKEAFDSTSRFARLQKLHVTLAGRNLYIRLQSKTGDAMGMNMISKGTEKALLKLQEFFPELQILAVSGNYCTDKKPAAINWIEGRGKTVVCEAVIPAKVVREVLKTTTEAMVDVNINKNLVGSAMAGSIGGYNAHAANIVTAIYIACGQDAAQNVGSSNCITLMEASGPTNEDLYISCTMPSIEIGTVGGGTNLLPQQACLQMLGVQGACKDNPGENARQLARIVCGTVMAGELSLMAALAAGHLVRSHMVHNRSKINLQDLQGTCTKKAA
The experiment is described as follows: Biological activity against rat liver 3-hydroxy-3-methyl glutaryl coenzyme A reductase (HMGR) at a concentration of 10E-4 M; No inhibition. The experiment is classed as tissue-based.

The structures appear in SMILES notation. Active and inactive are the calls of the source. The calls are words filed in the database; no cut-off is given here.

Take `COC(=O)C[C@H](O)C[C@@H](O)Cc1ccncc1C(N)=O`: the result was inactive.

Regarding `COC(=O)C[C@H](O)C[C@H](O)Cc1ccncc1C(N)=O`, the outcome was inactive.
